# Columns and labels:
# Smt3 = biological target: T1, Smt3 (Saccharomyces cerevisiae, UniProt Q12306); experiment: Isothermal titration calorimetry, SIM3 peptides on Smt3; format: binding; conditions: 2 mM peptide in syringe, 20 mM NaPi 100 mM NaCl pH 7.5, 10% DMSO, 25 °C
# T1 construct: 6xHis (C); made in house; host or cells: E. coli BL21 (DE3)pLysS
# Method: The syringe contained 2 mM of peptide, while the cell held 150 µM or 300 µM of protein. […] For the ITC titrations, equal amounts of DMSO (10%) were included in both compartments to minimize the heat of dilution. Each titration consisted of a first injection of 0.4 µL, followed by 12-13 injections of 2 µL peptide into the cell, separated by intervals of 120 s. The first injection was discarded during the analysis of the data. The wild-type peptide titration on Smt3 was performed in duplicate. The Microcal LLC ITC200 Origin software was used to fit the data to a single binding site model.
# U-[13C,15N] Smt3 = experiment: NMR chemical shift perturbation, SIM3 peptides with Smt3; format: binding, Saccharomyces cerevisiae; conditions: 1.2 molar equivalents of peptide, 0.3 mM Smt3, 20 mM sodium phosphate, 20 mM NaCl pH 6.5, 298 K
# Method: The samples contained 0.3–0.6 mM of U-[^13C,^15N] […] All NMR spectra were acquired at 298 K on a Bruker Avance III HD 800 MHz spectrometer, equipped with a TCI cryoprobe. The NMR data were acquired in TopSpin 3.6 (Bruker) and processed in NMRPipe v.7.5[76] and analyzed in CCPNMR v. 2.4.2[77]. Assignments of Smt3 backbone amide resonances were taken from literature[78] and verified by 3D HNCACB, HN(CO)CACB, and ^15N-edited NOESY-HSQC (mixing time 100 ms) spectra. Further assignments of methyl resonances were obtained from [^1H, ^13C] […] The assigned ^1H, ^13C and ^15N chemical shifts of the free and bound Smt3 have been deposited in the Biological Magnetic Resonance Bank (http://www.bmrb.wisc.edu/) under the accession number 53209.
# The NMR binding experiments were performed by an incremental addition of wild-type or mutant SIM peptides (1.2 mM stocks in the working buffer) to 0.3 mM samples of U-[^13C,^15N] Smt3, with the spectral changes monitored in [^1H,^15N] HSQC spectra acquired at each increment and [^1H, ^13C] […] The average chemical shift perturbations (Δδavg) were calculated as Δδavg = (ΔδX^2/n + ΔδH^2/2)^0.5, where ΔδX and ΔδH are the chemical shift changes of the backbone amide nitrogens or methyl carbons (ΔδX) and protons (ΔδH) of Smt3 residues upon addition of 1.2 molar equivalents of SIM peptides, and n = 50 or 9 for the backbone amide and methyl groups, respectively.
# T1 sequence (Q12306 whole entry): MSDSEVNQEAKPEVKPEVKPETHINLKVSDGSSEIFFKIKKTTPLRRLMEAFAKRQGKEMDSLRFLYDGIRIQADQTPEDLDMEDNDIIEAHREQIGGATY
Sequence,ITC interaction with Smt3 (Smt3),"Average backbone amide chemical shift perturbation of Smt3 (in words) (U-[13C,15N] Smt3)"
"ENDAIAVSTDE [mutant SIM3 peptide, SIM3 peptide with I633 and M635 mutated to alanine]",failed to interact with Smt3,–
ENDIIMVSTDE [wild-type SIM3 peptide],–,"induced strong backbone amide chemical shift to Smt3 residues I35, F36, F37, K38, I39 and R46"
